Results on 19 compounds are retold here after US4565865A, “Phospholipid carbamates” (Takeda Chemical Industries, Ltd., priority 1980, dated 1986).

≈ marks a conversion by molar mass, not a printed value. Where two headings read alike, the source gives them in different places.

Common to all, as to format: cell-based
The test system of one experiment is Tetrahymena pyriformis W. Briefly: Antiprotozoal activity, MIC by serial broth dilution technique. The note with it: 28° C., 44-48 hours, tryptose peptone medium, pH 7.0; for MIC: Tetrahymena pyriformis.
The subject of a further experiment is Cryptococcus neoformans. Description: Antifungal activity, paper disc zone of inhibition. Conditions: 37° C., 2 days, agar, 8 mm paper disc, 2 mg/ml solution; for zone of inhibition at 2000 µg/mL: Cryptococcus neoformans, 48 h. The procedure: For the antifungal activity data given in Table 1, Cryptococcus neoformans is used as the test microorganism and incubated at 37° C. for 2 days in an agar medium with a paper disc (8 mm in diameter) immersed in an aqueous 2 mg/ml solution of a test compound and air-dried as placed on said medium, and the zone of inhibition is measured. The judgement criteria are as follows: "-" means less than 9 mm in inhibition zone diameter, "±" means 9-11 mm, "+" means 12-20 mm, and "++" means more than 20 mm.

The subject of experiment [1] is human promyelocytic leukemia cells HL-60. Briefly: Growth inhibition (GD50) of human promyelocytic leukemia HL-60 cells.
Experiment [2] has as its system mouse spontaneous myelolid leukemia M1 cells (resistant clone). Briefly: Growth inhibition (GD50) of mouse leukemia M1 cells.
For experiment [3], the system named is Rauscher virus-induced promyelocytic leukemia cells R 453. Briefly: Growth inhibition (GD50) of Rauscher virus-induced leukemia R 453 cells. The note with it: Mus musculus.
In another experiment the test system is Pyricularia oryzae. Briefly: microbe, parasite or virus in culture.
A further experiment relates to Cochliobolus miyabeanus. Briefly: Antifungal activity, MIC by serial dilution in agar. Conditions: Bipolaris oryzae.
The test system of another experiment is Aspergillus. The experiment is described as above. Conditions: 1% glucose bouillon agar. The procedure:
(§1) For the antifungal activity data shown in Table 2, various typical plant-disease-causing fungi are used as the test fungi and the minimum inhibitory concentration (MIC) are determined by the serial dilution technique using a 1% glucose bouillon agar medium.

For a further experiment, the system named is Botrytis cinerea. The experiment is described as above. Conditions: 1% glucose bouillon agar. The procedure: as §1
The next experiment has as its system Gibberella fujikuroi. The description is as above. Conditions: Fusarium fujikuroi, 1% glucose bouillon agar. The procedure:
as §1

Another experiment has as its system Penicillium. Described as above. The note with it: 1% glucose bouillon agar. The procedure:
as §1

In the next experiment the test system is Red yeast. The description is as above. The note with it: 1% glucose bouillon agar. The procedure:
as §1

The next experiment concerns Leptosphaeria salvinii. Described as above. The note with it: Nakataea oryzae.
The next experiment relates to Brewer's yeast. The experiment is described as above.
[4] abbreviates: four successive population doublings of untreated cells, trypan blue, mean of four separate experiments.

Usually zone of inhibition stands for the size of the clear area around the sample on an inoculated plate. For `CCCCC/C=C\C/C=C\CCCCCCCNC(=O)OCCOP(=O)([O-])OCC[N+](C)(C)C` [Example 21, 2-[8,11(Z,Z)-Heptadecadienylcarbamoyloxy]ethyl 2-trimethylammonioethyl phosphate], the MIC in the experiment with Tetrahymena pyriformis W was 2 µg/mL. Moreover, the zone of inhibition at 2000 µg/mL in the experiment with Cryptococcus neoformans was 9 to 11 mm.

For orientation: IC50 means the concentration needed to halve the response being measured. Read a low IC50 as inhibition by little substance. As for `CCCCC/C=C\C/C=C\CCCCCCCNC(=O)OCCCOP(=O)(O)OCCN` [Example 22, 3-[8,11(Z,Z)-Heptadecadienylcarbamoyloxy]propyl 2-aminoethyl phosphate], the midpoint of inhibition in experiment [1] (setting [4]), the IC50, lay at 4.3 µg/mL. In addition, in the experiment with Tetrahymena pyriformis W, the MIC was not above 1 µg/mL. This compound also yielded a zone of inhibition at 2000 µg/mL in the experiment on Cryptococcus neoformans of 9 to 11 mm.

`CCCCCCCCCCCCCCCCCCNC(=O)OCCOP(=O)([O-])OCC[N+](C)(C)C` [Example 15, 2-(N-Octadecylcarbamoyloxy)ethyl 2-trimethylammonioethyl phosphate] yielded an IC50 in [1] (setting [4]) of 2.3 µg/mL. The MIC against Tetrahymena pyriformis W lay in the range of 1 to 2 µg/mL. Also, the zone of inhibition at 2000 µg/mL in the experiment on Cryptococcus neoformans fell in the range of 12 to 20 mm.

In the case of `CCCCCCCCCCCCCCCCCCNC(=O)OCC(COP(=O)([O-])OCC[N+](C)(C)C)OC` (stereo not drawn) [Example 11, 3-(N-n-Octadecylcarbamoyloxy)-2-methoxypropyl 2-trimethylammonioethyl phosphate], in experiment [1] (setting [4]), inhibition was half-maximal at 0.6 µg/mL (IC50). This compound also displayed an MIC with Tetrahymena pyriformis W of 2 to 4 µg/mL. Besides, the zone of inhibition at 2000 µg/mL in the experiment on Cryptococcus neoformans was in the range of 12 to 20 mm.

In the experiment with Tetrahymena pyriformis W, `CCCCCCCCCCNC(=O)OCC(COP(=O)([O-])OCC[N+](C)(C)C)OC` (stereo not drawn) [Example 29, 3-(N-Decylcarbamoyloxy)-2-methoxypropyl 2-trimethylammonioethyl phosphate] came in with an MIC of 2 µg/mL. The zone of inhibition at 2000 µg/mL in the experiment with Cryptococcus neoformans lay in the range of 9 to 11 mm.

The compound `COC1=C(OC)C(=O)C(CCCCCCCCCNC(=O)OCCCOP(=O)([O-])OCC[N+](C)(C)C)=C(C)C1=O` [Example 8, 3-[N-(9-(2,3-Dimethoxy-6-methyl-1,4-benzoquinon-5-yl)nonyl)carbamoyloxy]propyl 2-trimethylammonioethyl phosphate] showed an MIC in the experiment with Tetrahymena pyriformis W of 40 µg/mL.

Turning to `CCCCCCCCCCCCCCCCCNC(=O)OCCCOP(=O)([O-])OCC[N+](C)(C)C` [Example 4, 3-(N-n-Heptadecylcarbamoyloxy)propyl 2-trimethylammonioethyl phosphate], the half-inhibitory concentration (IC50) in experiment [2] was 3 to 4 µg/mL; in experiment [3] it was 2 to 3 µg/mL; in [1] it was 1 µg/mL. In addition, the MIC in the experiment with Tetrahymena pyriformis W is 1 to 2 µg/mL; against Pyricularia oryzae, 6.25 µg/mL; against Cochliobolus miyabeanus it was more than 100 µg/mL; against Aspergillus, more than 100 µg/mL; in the experiment on Botrytis cinerea, 12.5 µg/mL; against Gibberella fujikuroi, more than 100 µg/mL. Moreover, the MIC with Penicillium is more than 100 µg/mL; against Red yeast it was more than 100 µg/mL; against Leptosphaeria salvinii it was 50 µg/mL; in the experiment with Brewer's yeast, more than 100 µg/mL. The zone of inhibition at 2000 µg/mL in the experiment on Cryptococcus neoformans was 12 to 20 mm.

In experiment [1], `CCCCCCCCCCCCCCNC(=O)OCC(COP(=O)([O-])OCC[N+](C)(C)C)OC` (stereo not drawn) [Example 26, 3-(N-Tetradecylcarbamoyloxy)-2-methoxypropyl 2-trimethylammonioethyl phosphate] had a 50% inhibitory concentration (IC50) of 2 to 3 µg/mL. The MIC turned out to be 0.2 µg/mL in the experiment on Tetrahymena pyriformis W; 3.12 µg/mL in the experiment with Pyricularia oryzae; 12.5 µg/mL against Cochliobolus miyabeanus; 12.5 µg/mL against Aspergillus; 3.12 µg/mL in the experiment with Botrytis cinerea; 12.5 µg/mL in the experiment with Gibberella fujikuroi. Besides, the MIC worked out at 12.5 µg/mL against Penicillium; 25 µg/mL against Red yeast; 6.25 µg/mL in the experiment on Leptosphaeria salvinii (Leptosphaeria salvinii, 1% glucose bouillon agar, read-out: MIC); 6.25 µg/mL in the experiment with Brewer's yeast (Brewer's yeast, 1% glucose bouillon agar, read-out: MIC). In the experiment with Cryptococcus neoformans, this compound displayed a zone of inhibition at 2000 µg/mL of 12 to 20 mm.

Consider `CCCCCCCCCCCCCCCCCCNC(=O)OCC(COP(=O)([O-])OCC[n+]1ccccc1)OC` (stereo not drawn) [Example 12, 3-(N-n-Octadecylcarbamoyloxy)-2-methoxypropyl 2-pyridinioethyl phosphate], for which it took 1 µg/mL to reach half-maximal inhibition in [1] (setting [4]) (IC50). In the experiment with Tetrahymena pyriformis W, this compound returned an MIC of 4 µg/mL. This compound came in with a zone of inhibition at 2000 µg/mL in the experiment with Cryptococcus neoformans of 12 to 20 mm.

In the experiment on Tetrahymena pyriformis W, `CCCCCCCCCCCCCCCCCCNC(=O)OCC(COP(=O)([O-])OCC[n+]1ccsc1)OC` (stereo not drawn) [Example 13, 3-(N-n-Octadecylcarbamoyloxy)-2-methoxypropyl 2-thiazolioethyl phosphate] registered an MIC of 2 to 4 µg/mL. In the experiment with Cryptococcus neoformans, this compound yielded a zone of inhibition at 2000 µg/mL of 12 to 20 mm.

On to `CCCCCCCCCCCCNC(=O)OCCCOP(=O)([O-])OCC[N+](C)(C)C` [Example 31, 3-N-Dodecylcarbamoyloxypropyl 2-trimethylammonioethyl phosphate], for which the MIC in the experiment with Tetrahymena pyriformis W was not above 1 µg/mL; in the experiment with Pyricularia oryzae it was 12.5 µg/mL; in the experiment on Cochliobolus miyabeanus it was 12.5 µg/mL; in the experiment with Aspergillus, 12.5 µg/mL; in the experiment with Botrytis cinerea it was 12.5 µg/mL; in the experiment on Gibberella fujikuroi, 50 µg/mL. Also, the MIC against Penicillium came to 12.5 µg/mL; against Red yeast it was 25 µg/mL; in the experiment with Leptosphaeria salvinii, 25 µg/mL; in the experiment on Brewer's yeast it was 12.5 µg/mL. In the experiment with Cryptococcus neoformans, the zone of inhibition at 2000 µg/mL lay in the range of 12 to 20 mm.

`CCC=CCC=CCC=CCCCCCCCNC(=O)OCCCOP(=O)([O-])OCC[N+](C)(C)C` [Example 17, 3-(N-8,11,14-Heptadecatrienylcarbamoyloxy)propyl 2-trimethylammonioethyl phosphate] came in with a concentration for half-maximal inhibition (IC50) in [1] (setting [4]) of 2 µg/mL. Besides, the MIC in the experiment with Tetrahymena pyriformis W is not above 1 µg/mL; in the experiment on Pyricularia oryzae, 25 µg/mL; with Cochliobolus miyabeanus it was 25 µg/mL; in the experiment on Aspergillus, 50 µg/mL; against Botrytis cinerea, 12.5 µg/mL; with Gibberella fujikuroi, 50 µg/mL. The MIC against Penicillium is 50 µg/mL; in the experiment on Red yeast it was 100 µg/mL; in the experiment on Leptosphaeria salvinii, 50 µg/mL; against Brewer's yeast it was 100 µg/mL. Besides, in the experiment on Cryptococcus neoformans, the zone of inhibition at 2000 µg/mL is more than 20 mm.

In the case of `CCCCCCCCCCCCCNC(=O)OCCCOP(=O)([O-])OCC[N+](C)(C)C` [Example 23, 3-(N-Tridecylcarbamoyloxy)propyl 2-trimethylammonioethyl phosphate], the MIC was not above 0.1 µg/mL in the experiment with Tetrahymena pyriformis W; 6.25 µg/mL against Pyricularia oryzae; 12.5 µg/mL in the experiment with Cochliobolus miyabeanus; 12.5 µg/mL in the experiment on Aspergillus; 6.25 µg/mL with Botrytis cinerea; 25 µg/mL against Gibberella fujikuroi. For the same compound, the MIC with Penicillium, against Red yeast, in the experiment on Leptosphaeria salvinii and with Brewer's yeast was 12.5 µg/mL throughout. In the experiment on Cryptococcus neoformans, this compound displayed a zone of inhibition at 2000 µg/mL of 12 to 20 mm.

On to “3-[8,11,14(Z,Z,Z)-Heptadecatrienylcarbamoyloxy]propyl 2-aminoethyl phosphate [Example 18]”, for which the “Tetrahymena pyriformis W MIC” value with Tetrahymena pyriformis W was 2 to 4 µg/mL. Also, the “Cryptococcus neoformans Zone of inhibition” value with Cryptococcus neoformans is “+ (12-20 mm)”.

`CCCCCCCCCCCCCCNC(=O)OCC(COP(=O)(O)OCCN)OC` (stereo not drawn) [Example 25, 3-(N-Tetradecylcarbamoyloxy)-2-methoxypropyl 2-aminoethyl phosphate]: the IC50 in experiment [1] lay in the range of 2 to 3 µg/mL. The MIC against Tetrahymena pyriformis W is not above 1 µg/mL; against Pyricularia oryzae, 6.25 µg/mL; with Cochliobolus miyabeanus it was more than 100 µg/mL; against Aspergillus, 25 µg/mL; against Botrytis cinerea, 6.25 µg/mL; with Gibberella fujikuroi, 50 µg/mL. The MIC amounted to 25 µg/mL against Penicillium, 50 µg/mL against Red yeast, 100 µg/mL in the experiment with Leptosphaeria salvinii and 25 µg/mL against Brewer's yeast. The compound further gave a zone of inhibition at 2000 µg/mL in the experiment with Cryptococcus neoformans of more than 20 mm.

`CCCCCCCCCCNC(=O)OCC(COP(=O)(O)OCCN)OC` (stereo not drawn) [Example 28, 3-(N-Decylcarbamoyloxy)-2-methoxypropyl 2-aminoethyl phosphate] yielded an MIC in the experiment on Tetrahymena pyriformis W of 2 µg/mL. This compound had a zone of inhibition at 2000 µg/mL in the experiment on Cryptococcus neoformans of less than 9 mm.

In [1] (setting [4]), `CCCCC/C=C\C/C=C\CCCCCCCNC(=O)OCCCOP(=O)([O-])OCC[N+](C)(C)C` [Example 20] came in with an IC50 of 4.8 µg/mL (≈ 9.25 µM). In the experiment with Tetrahymena pyriformis W, this compound registered an MIC of 2 µg/mL (≈ 3.86 µM). For the same compound, the zone of inhibition at 2000 µg/mL in the experiment with Cryptococcus neoformans fell in the range of 12 to 20 mm.

Regarding `CCCCCCCCCCCCCCNC(=O)OCCCOP(=O)([O-])OCC[N+](C)(C)C` [Example 36, 3-N-Tetradecylcarbamoyloxypropyl 2-trimethylammonioethyl phosphate], the MIC with Tetrahymena pyriformis W is not above 1 µg/mL; in the experiment with Pyricularia oryzae, 3.12 µg/mL; in the experiment on Cochliobolus miyabeanus, 25 µg/mL; in the experiment with Aspergillus it was 12.5 µg/mL; with Botrytis cinerea, 12.5 µg/mL; with Gibberella fujikuroi, 12.5 µg/mL. The MIC worked out at 12.5 µg/mL against Penicillium, 25 µg/mL against Red yeast, 6.25 µg/mL with Leptosphaeria salvinii and 6.25 µg/mL in the experiment with Brewer's yeast. This compound displayed a zone of inhibition at 2000 µg/mL in the experiment on Cryptococcus neoformans of more than 20 mm.

The compound `CCCCCCCCCCCCNC(=O)OCCCOP(=O)(O)OCCN` [Example 32] showed an MIC in the experiment on Tetrahymena pyriformis W not above 1 µg/mL. Further, the zone of inhibition at 2000 µg/mL in the experiment on Cryptococcus neoformans lay in the range of 12 to 20 mm.
